Earlier results in patent publication US20260199285A1, “TAXANE FORMULATIONS” (BIOPURIFICATION, LLC, priority 2022, published 2026).

Legend:
[1] = test system: advanced breast carcinoma

## CC(=O)O[C@@]12CO[C@@H]1C[C@H](O)[C@@]1(C)C(=O)[C@H](O)C3=C(C)[C@@H](OC(=O)[C@H](O)[C@@H](NC(=O)OC(C)(C)C)c4ccccc4)C[C@@](O)([C@@H](OC(=O)c4ccccc4)[C@H]21)C3(C)C [docetaxel]
[1]
  effective ratio for treatment of advanced breast carcinoma: 49%
Tubulin depolymerization
  inhibitory activity of tubulin depolymerization relative to paclitaxel: about 2 times
